Measured values: US20090117170A1, “SEGMENTED DEVICE FOR THE DELAYED RELEASE OF MOLECULES IN A TANGENTIAL DIRECTION THROUGH THIN FILMS AND USES THEREOF” (CAPSULUTION NANOSCIENCE AG, priority 2004, published 2009)

Key:
[1] = ibuprofen release from segmented glass release apparatus in phosphate saline buffer; format: physicochemical; conditions: 10 intersegment films, 37° C., phosphate saline buffer pH 7.4 with sodium azide
Method: A release apparatus was produced from glass discs 3 to 11 (soda-lime glass, edge lengths 26.0×26.0 mm, disc thickness of 1.0 mm) having a surface roughness of 0.172-1.39 Ra (see FIGS. 7A and 7B). The release apparatus consisted of 9 discs (26.0×26.0 mm) having a core drilling 13 (diameter=8 mm) and was closed off on both sides by two discs without a core drilling. Separate intersegment films were not used. A reservoir volume of theoretically 452.4 μl results in the case of 9 discs having a core drilling and a disc thickness of 1.0 mm. The release apparatus was filled with a model substance before closing (100 mg of crystalline ibuprofen) and the remaining reservoir volume was subsequently filled with release medium. Following this, the release behavior of the model substance was investigated at 37° C. in phosphate saline buffer pH 7.4 with addition of sodium azide. FIGS. 7C and 7D show the ibuprofen release from the segmented glass apparatus having 10 intersegment films in phosphate saline buffer pH 7.4 with addition of sodium azide. […] A release apparatus consisting of glass discs (soda-lime glass, edge lengths 26.0×26.0 mm, disc thickness of 1.0 mm) having a surface roughness of 0.172-1.39 Ra was produced (see FIGS. 7A and 7B), the discs being modified by a separating film covering only the outer edges of the discs such that an intersegment film thickness (hollow space) of about 50 μm was present. The release apparatus consisted of 9 discs 3 to 11 (26.0×26.0 mm) having a core drilling 13 (diameter=8 mm) and was closed off on both sides by two discs without a core drilling. Before closing, the release apparatus was filled with a model substance (100 mg of crystalline ibuprofen) and the remaining reservoir volume was subsequently filled with release medium. Following this, the release behavior of the model substance was investigated at 37° C. in phosphate saline buffer pH 7.4 with addition of sodium azide. […]

[2] = enalaprilate release from segmented silicon disc release apparatus; format: physicochemical
Source text: A release apparatus was produced from round silicon discs (outer diameter 14.0 mm, thickness 0.525 mm) having a very low surface roughness. The release apparatus consisted of 15 discs having a core drilling (diameter=8 mm), a silicon disc without a core drilling as a cover plate and a base plate having closable openings for filling. A silicon disc having a core drilling was glued onto the base plate of titanium. The release apparatus was assembled underwater and fixed by means of a holder. Subsequently, the reservoir was emptied through the reclosable openings in the base plate before the release apparatus was filled with an enalaprilate suspension.
As in Example 3, a release apparatus was produced from round silicon discs (outer diameter 14.0 mm, thickness 0.525 mm), the silicon discs being coated with polyelectrolyte multilayers. Before the assembly of the release apparatus, the silicon discs were coated with a 16 PAH/PSS layer.
As in Example 4, a release apparatus was produced from round coated silicon discs (outer diameter 14.0 mm, thickness 0.525 mm), 25 discs having a core drilling being used.

| release rate of the model substance (constant release behavior) ([1]; Example 1: glass apparatus, no separate films, 100 mg crystalline ibuprofen) | duration of constant release behavior ([1]; Example 1: glass apparatus, no separate films) | release rate of the model substance ([1]; Example 2: glass apparatus, modified film thickness (hollow space) about 50 μm, 100 mg crystalline ibuprofen, for 10 to 100 days) | release rate ([2]; Example 3: uncoated silicon discs, 15 intersegment films, enalaprilate suspension) | release rate ([2]; Example 4: silicon discs coated with 16 PAH/PSS layer, 15 modified intersegment films) | release rate ([2]; Example 5: coated silicon discs, 25 modified intersegment films) | Structure (SMILES) |
| --- | --- | --- | --- | --- | --- | --- |
| about 65 μg/d | more than 100 days | about 0.6 mg/d |  |  |  | CC(C)Cc1ccc(C(C)C(=O)O)cc1 (stereo not drawn) [ibuprofen] |
|  |  |  | about 150 μg per day | about 75 μg per day | about 140 μg per day | C[C@H](N[C@@H](CCc1ccccc1)C(=O)O)C(=O)N1CCC[C@H]1C(=O)O [enalaprilate] |
